Laboratory results published in patent US11459315B2, “Modulators of methyl modifying enzymes, compositions and uses thereof” (Constellation Pharmaceuticals, Inc., priority 2017, dated 2022).
Where two headings read alike, the source gives them in different places.

Tests used:
[1] = biological target: PRC2 containing wt EZH2 (Homo sapiens (Human), UniProt Q15910); assay: EZH2 biochemical assay (IC50), 3H-SAM incorporation into biotinylated H3 peptide; settings: 30 pM PRC2 containing wt EZH2, 3-5 h pre-incubation
PRC2 containing wt EZH2, sequence (Q15910 whole entry): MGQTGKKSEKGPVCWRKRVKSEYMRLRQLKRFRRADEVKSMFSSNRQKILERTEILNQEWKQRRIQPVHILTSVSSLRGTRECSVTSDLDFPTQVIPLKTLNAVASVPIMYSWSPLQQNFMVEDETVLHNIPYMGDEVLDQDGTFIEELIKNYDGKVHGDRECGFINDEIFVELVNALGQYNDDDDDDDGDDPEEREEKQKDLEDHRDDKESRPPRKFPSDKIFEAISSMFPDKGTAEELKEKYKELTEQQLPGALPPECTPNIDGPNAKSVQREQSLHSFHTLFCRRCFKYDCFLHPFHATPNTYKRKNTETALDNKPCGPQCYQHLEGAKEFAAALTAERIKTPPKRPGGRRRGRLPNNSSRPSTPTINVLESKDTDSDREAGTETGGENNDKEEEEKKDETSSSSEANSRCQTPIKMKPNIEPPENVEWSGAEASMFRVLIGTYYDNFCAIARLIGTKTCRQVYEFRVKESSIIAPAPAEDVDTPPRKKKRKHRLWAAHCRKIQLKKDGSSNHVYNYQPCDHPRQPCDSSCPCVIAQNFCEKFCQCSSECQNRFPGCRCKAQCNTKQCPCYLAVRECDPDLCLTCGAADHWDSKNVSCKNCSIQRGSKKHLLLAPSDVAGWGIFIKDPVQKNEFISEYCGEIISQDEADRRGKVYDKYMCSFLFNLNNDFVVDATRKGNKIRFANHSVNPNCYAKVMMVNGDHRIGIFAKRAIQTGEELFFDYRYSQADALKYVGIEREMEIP
PRC2 containing wt EZH2, sequence (O75530 whole entry partner): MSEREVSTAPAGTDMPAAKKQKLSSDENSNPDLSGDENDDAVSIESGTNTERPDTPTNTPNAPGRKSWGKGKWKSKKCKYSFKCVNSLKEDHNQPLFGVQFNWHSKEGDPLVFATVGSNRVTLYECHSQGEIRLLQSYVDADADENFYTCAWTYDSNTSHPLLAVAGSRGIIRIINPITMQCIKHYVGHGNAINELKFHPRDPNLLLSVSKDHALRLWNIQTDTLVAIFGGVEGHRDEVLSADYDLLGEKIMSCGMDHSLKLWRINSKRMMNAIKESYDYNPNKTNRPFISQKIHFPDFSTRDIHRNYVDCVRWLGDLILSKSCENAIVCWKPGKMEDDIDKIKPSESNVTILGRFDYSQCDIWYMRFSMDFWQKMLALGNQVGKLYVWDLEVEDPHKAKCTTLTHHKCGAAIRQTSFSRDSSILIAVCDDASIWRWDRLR
PRC2 containing wt EZH2, sequence (Q15022 whole entry partner): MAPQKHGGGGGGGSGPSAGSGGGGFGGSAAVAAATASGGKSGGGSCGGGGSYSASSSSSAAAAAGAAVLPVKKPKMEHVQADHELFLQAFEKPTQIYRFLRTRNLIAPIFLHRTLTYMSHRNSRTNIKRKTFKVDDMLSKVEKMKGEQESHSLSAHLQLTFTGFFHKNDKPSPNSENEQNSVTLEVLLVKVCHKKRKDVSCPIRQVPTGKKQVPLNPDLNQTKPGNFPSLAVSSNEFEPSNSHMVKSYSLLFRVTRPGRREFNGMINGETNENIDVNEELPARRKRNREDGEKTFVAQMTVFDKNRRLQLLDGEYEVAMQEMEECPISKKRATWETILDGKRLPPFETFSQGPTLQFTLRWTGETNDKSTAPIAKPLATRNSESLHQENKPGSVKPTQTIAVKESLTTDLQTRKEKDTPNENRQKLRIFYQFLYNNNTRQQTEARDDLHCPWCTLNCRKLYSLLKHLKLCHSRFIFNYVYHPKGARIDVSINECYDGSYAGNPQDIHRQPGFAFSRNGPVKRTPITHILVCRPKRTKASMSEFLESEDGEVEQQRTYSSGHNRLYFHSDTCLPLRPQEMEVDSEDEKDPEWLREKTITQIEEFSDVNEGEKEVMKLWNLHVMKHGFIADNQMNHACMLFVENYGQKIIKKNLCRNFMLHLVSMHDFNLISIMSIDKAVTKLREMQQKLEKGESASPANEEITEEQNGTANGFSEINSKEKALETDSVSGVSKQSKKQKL
PRC2 containing wt EZH2, sequence (Q09028 whole entry partner): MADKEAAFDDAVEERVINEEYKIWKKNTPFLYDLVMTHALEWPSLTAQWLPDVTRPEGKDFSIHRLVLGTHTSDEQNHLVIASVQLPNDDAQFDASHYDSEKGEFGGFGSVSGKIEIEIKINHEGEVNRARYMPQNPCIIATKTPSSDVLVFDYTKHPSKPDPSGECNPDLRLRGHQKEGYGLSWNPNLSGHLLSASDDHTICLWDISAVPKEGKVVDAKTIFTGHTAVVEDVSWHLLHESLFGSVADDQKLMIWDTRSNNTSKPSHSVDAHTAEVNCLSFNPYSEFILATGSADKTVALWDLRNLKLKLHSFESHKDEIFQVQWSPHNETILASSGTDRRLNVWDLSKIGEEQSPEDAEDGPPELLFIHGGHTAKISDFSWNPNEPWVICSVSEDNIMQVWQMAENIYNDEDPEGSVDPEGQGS
PRC2 containing wt EZH2, sequence (Q6ZN18 whole entry partner): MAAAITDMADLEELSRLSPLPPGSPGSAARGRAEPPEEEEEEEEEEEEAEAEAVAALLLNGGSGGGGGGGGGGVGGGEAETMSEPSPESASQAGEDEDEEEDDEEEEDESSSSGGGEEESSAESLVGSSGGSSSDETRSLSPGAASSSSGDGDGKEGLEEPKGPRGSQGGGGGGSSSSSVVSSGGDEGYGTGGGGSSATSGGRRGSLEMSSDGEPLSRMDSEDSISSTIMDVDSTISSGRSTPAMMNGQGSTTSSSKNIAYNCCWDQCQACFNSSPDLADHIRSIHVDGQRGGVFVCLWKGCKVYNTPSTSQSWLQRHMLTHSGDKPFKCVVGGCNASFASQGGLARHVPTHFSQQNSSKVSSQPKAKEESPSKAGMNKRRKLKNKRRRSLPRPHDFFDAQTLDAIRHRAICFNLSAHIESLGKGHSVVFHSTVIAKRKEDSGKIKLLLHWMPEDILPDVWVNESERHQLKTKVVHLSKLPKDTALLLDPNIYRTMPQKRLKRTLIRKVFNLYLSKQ
Summary of the method: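 The PRC2 pentamer with wt EZH2 (30 pM) was pre-incubated for 3-5 h with 450 nM SAM plus 450 nM ³H-SAM, 2 µM H3K27me3 activating peptide and compound (0.8% DMSO) in Tris at pH 8.5. Biotinylated H3K27me1 peptide was added and the reaction ran 18-22 h at RT. Incorporated ³H was captured on streptavidin plates, and IC50 was taken from a four-parameter fit.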

[2] = test system: H3K27me3 mark in HeLa cells (EZH2); assay: H3K27me3 Alpha Hela Assay (AlphaLISA); format: cell-based; settings: Homo sapiens, HeLa, 72 h, HeLa cells, 72 hrs; read-out: EZH2 Cell H3K27me3 Alpha HeLa (EC50 K27me3)
Summary of the method: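 HeLa cells (1,000/well) treated with ten 3-fold compound doses for 72 h at 37 °C; lysates extracted and H3K27me3 detected by AlphaLISA with anti-K27me3 acceptor beads, biotinylated anti-H3 (3 nM) and streptavidin donor beads. EC50 from DMSO-normalized dose-response curves; duplicate plate assessed viability.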

SMILES | IC50 ([1]; EZH2 (IC50)) [µM] | EC50 [2] [µM] | IC50 ([1]; read-out: EZH2 (IC50)) [µM]
CSc1cc(C)[nH]c(=O)c1CNC(=O)c1c(C)n([C@H](C)[C@H]2CCN(C3CC3)C[C@H]2F)c2ccccc12 [Example 56, 1-((R)-1-((3S,4R)-1-cyclopropyl-3-fluoropiperidin-4-yl)ethyl)-2-methyl-N-((6-methyl-4-(methylthio)-2-oxo-1,2-dihydropyridin-3-yl)methyl)-1H-indole-3-carboxamide] | < 0.0005 | < 0.01 | 
CSc1cc(C)[nH]c(=O)c1CNC(=O)c1c(C)n([C@H](C)C2CCN(C3CC3)CC2)c2cc(F)ccc12 [Example 57, (R)-1-(1-(1-cyclopropylpiperidin-4-yl)ethyl)-6-fluoro-2-methyl-N-((6-methyl-4-(methylthio)-2-oxo-1,2-dihydropyridin-3-yl)methyl)-1H-indole-3-carboxamide] | < 0.0005 | < 0.01 | 
CSc1cc(C)[nH]c(=O)c1CNC(=O)c1c(C)n([C@H](C)C2CCN(C3CC3)CC2)c2ncc(F)cc12 [Example 58, (R)-1-(1-(1-cyclopropylpiperidin-4-yl)ethyl)-5-fluoro-2-methyl-N-((6-methyl-4-(methylthio)-2-oxo-1,2-dihydropyridin-3-yl)methyl)-1H-pyrrolo[2,3-b]pyridine-3-carboxamide] | < 0.0005 | < 0.01 | 
CSc1cc(C)[nH]c(=O)c1CNC(=O)c1c(C)n([C@H](C)C2CCN(CC(F)F)CC2)c2ncccc12 [Example 59, (R)-1-(1-(1-(2,2-difluoroethyl)piperidin-4-yl)ethyl)-2-methyl-N-((6-methyl-4-(methylthio)-2-oxo-1,2-dihydropyridin-3-yl)methyl)-1H-pyrrolo[2,3-b]pyridine-3-carboxamide] | < 0.0005 | < 0.01 | 
CSc1cc(C)[nH]c(=O)c1CNC(=O)c1c(C)n([C@H](C)C2CCC(NC(C)(C)C)CC2)c2ccccc12 (stereo partly drawn) [Example 61, (R)-1-(1-(4-(tert-butylamino)cyclohexyl)ethyl)-2-methyl-N-((6-methyl-4-(methylthio)-2-oxo-1,2-dihydropyridin-3-yl)methyl)-1H-indole-3-carboxamide] |  | 0.01 to 0.1 | < 0.0005
CSc1cc(C)[nH]c(=O)c1CNC(=O)c1c(C)n([C@H](C)C2CCC(NC3COC3)CC2)c2ncncc12 (stereo partly drawn) [Example 63, 6-methyl-N-((6-methyl-4-(methylthio)-2-oxo-1,2-dihydropyridin-3-yl)methyl)-7-((R)-1-(4-(oxetan-3-ylamino)cyclohexyl)ethyl)-7H-pyrrolo[2,3-d]pyrimidine-5-carboxamide] |  | 0.01 to 0.1 | < 0.0005
CSc1cc(C)[nH]c(=O)c1CNC(=O)c1c(C)n([C@H](C)C2CCC(N3CC(F)C3)CC2)c2ncccc12 (stereo partly drawn) [Example 65, 1-((R)-1-(4-(3-fluoroazetidin-1-yl)cyclohexyl)ethyl)-2-methyl-N-((6-methyl-4-(methylthio)-2-oxo-1,2-dihydropyridin-3-yl)methyl)-1H-pyrrolo[2,3-b]pyridine-3-carboxamide] | < 0.0005 | < 0.01 | 
CSc1cc(C)[nH]c(=O)c1CNC(=O)c1c(C)n([C@H](C)C2CCN(C3CC(F)C3)CC2)c2ncccc12 (stereo partly drawn) [Example 66, (R)-1-(1-(1-(3-fluorocyclobutyl)piperidin-4-yl)ethyl)-2-methyl-N-((6-methyl-4-(methylthio)-2-oxo-1,2-dihydropyridin-3-yl)methyl)-1H-pyrrolo[2,3-b]pyridine-3-carboxamide] | < 0.0005 | 0.01 to 0.1 | 
CSc1cc(C)[nH]c(=O)c1CNC(=O)c1c(C)n([C@H](C)C2CCC(N3CC(F)C3)CC2)c2ncncc12 (stereo partly drawn) [Example 68, 7-((R)-1-(4-(3-fluoroazetidin-1-yl)cyclohexyl)ethyl)-6-methyl-N-((6-methyl-4-(methylthio)-2-oxo-1,2-dihydropyridin-3-yl)methyl)-7H-pyrrolo[2,3-d]pyrimidine-5-carboxamide] | < 0.0005 | < 0.01 | 
CSc1cc(C)[nH]c(=O)c1CNC(=O)c1c(C)n([C@H](C)C2CCN(C3CC3)CC2)c2ncc(Cl)cc12 [Example 69, (R)-5-chloro-1-(1-(1-cyclopropylpiperidin-4-yl)ethyl)-2-methyl-N-((6-methyl-4-(methylthio)-2-oxo-1,2-dihydropyridin-3-yl)methyl)-1H-pyrrolo[2,3-b]pyridine-3-carboxamide] | < 0.0005 | < 0.01 | 
CSc1cc(C)[nH]c(=O)c1CNC(=O)c1c(C)n([C@H](C)[C@H]2CCN(C)[C@H](C(F)(F)F)C2)c2ccccc12 [Example 71, 2-methyl-1-((R)-1-((2S,4S)-1-methyl-2-(trifluoromethyl)piperidin-4-yl)ethyl)-N-((6-methyl-4-(methylthio)-2-oxo-1,2-dihydropyridin-3-yl)methyl)-1H-indole-3-carboxamide] | < 0.0005 | < 0.01 | 
CSc1cc(C)[nH]c(=O)c1CNC(=O)c1c(C)n([C@H](C)C2CCC(N3CCCC3=O)CC2)c2ccccc12 (stereo partly drawn) [Example 72, 2-methyl-N-((6-methyl-4-(methylthio)-2-oxo-1,2-dihydropyridin-3-yl)methyl)-1-((R)-1-(4-(2-oxopyrrolidin-1-yl)cyclohexyl)ethyl)-1H-indole-3-carboxamide] |  | 0.01 to 0.1 | < 0.0005
CSc1cc(C)[nH]c(=O)c1CNC(=O)c1c(C)n([C@H](C)C2CCN(CC(F)(F)F)CC2)c2ncncc12 [Example 73, (R)-6-methyl-N-((6-methyl-4-(methylthio)-2-oxo-1,2-dihydropyridin-3-yl)methyl)-7-(1-(1-(2,2,2-trifluoroethyl)piperidin-4-yl)ethyl)-7H-pyrrolo[2,3-d]pyrimidine-5-carboxamide] | < 0.0005 | < 0.01 | 
CSc1cc(C)[nH]c(=O)c1CNC(=O)c1c(C)n([C@H](C)C2CCC(N3CCOC3=O)CC2)c2ccccc12 (stereo partly drawn) [Example 74, 2-methyl-N-((6-methyl-4-(methylthio)-2-oxo-1,2-dihydropyridin-3-yl)methyl)-1-((R)-1-(4-(2-oxooxazolidin-3-yl)cyclohexyl)ethyl)-1H-indole-3-carboxamide] |  | 0.01 to 0.1 | < 0.0005
COC1CN(C2CCC([C@@H](C)n3c(C)c(C(=O)NCc4c(SC)cc(C)[nH]c4=O)c4cncnc43)CC2)C1 (stereo partly drawn) [Example 77, 7-((R)-1-(4-(3-methoxyazetidin-1-yl)cyclohexyl)ethyl)-6-methyl-N-((6-methyl-4-(methylthio)-2-oxo-1,2-dihydropyridin-3-yl)methyl)-7H-pyrrolo[2,3-d]pyrimidine-5-carboxamide] | < 0.0005 | 0.01 to 0.1 | 
CSc1cc(C)[nH]c(=O)c1CNC(=O)c1c(C)n([C@H](C)C2CCC(N3CC(C)(F)C3)CC2)c2ncccc12 (stereo partly drawn) [Example 80, 1-((R)-1-(4-(3-fluoro-3-methylazetidin-1-yl)cyclohexyl)ethyl)-2-methyl-N-((6-methyl-4-(methylthio)-2-oxo-1,2-dihydropyridin-3-yl)methyl)-1H-pyrrolo[2,3-b]pyridine-3-carboxamide] | < 0.0005 | 0.01 to 0.1 | 
CSc1cc(C)[nH]c(=O)c1CNC(=O)c1c(C)n([C@H](C)C2CCN(C3CC(F)(F)C3)CC2)c2ccccc12 [Example 81, (R)-1-(1-(1-(3,3-difluorocyclobutyl)piperidin-4-yl)ethyl)-2-methyl-N-((6-methyl-4-(methylthio)-2-oxo-1,2-dihydropyridin-3-yl)methyl)-1H-indole-3-carboxamide] | < 0.0005 | 0.01 to 0.1 | 
CSc1cc(C)[nH]c(=O)c1CNC(=O)c1c(C)n([C@H](C)C2CCC(N3CC(F)C3)CC2)c2c(F)cccc12 (stereo partly drawn) [Example 82, 7-fluoro-1-((R)-1-(4-(3-fluoroazetidin-1-yl)cyclohexyl)ethyl)-2-methyl-N-((6-methyl-4-(methylthio)-2-oxo-1,2-dihydropyridin-3-yl)methyl)-1H-indole-3-carboxamide] | < 0.0005 | < 0.01 | 
CSc1cc(C)[nH]c(=O)c1CNC(=O)c1c(C)n([C@H](C)C2CCC(N3CC(F)C3)CC2)c2cc(F)ccc12 (stereo partly drawn) [Example 83, (R)-6-fluoro-1-(1-(4-(3-fluoroazetidin-1-yl)cyclohexyl)ethyl)-2-methyl-N-((6-methyl-4-(methylthio)-2-oxo-1,2-dihydropyridin-3-yl)methyl)-1H-indole-3-carboxamide] | < 0.0005 | < 0.01 | 
CCSc1cc(C)[nH]c(=O)c1CNC(=O)c1c(C)n([C@H](C)C2CCN(CC(F)(F)F)CC2)c2ccccc12 [Example 86, (R)-N-((4-(ethylthio)-6-methyl-2-oxo-1,2-dihydropyridin-3-yl)methyl)-2-methyl-1-(1-(1-(2,2,2-trifluoroethyl)piperidin-4-yl)ethyl)-1H-indole-3-carboxamide] | 0.0005 to 0.005 | 0.01 to 0.1 | 
CSc1cc(C)[nH]c(=O)c1CNC(=O)c1c(C)n([C@H](C)C2CCN(CC(F)(F)F)CC2)c2cccc(C)c12 [Example 87, (R)-2,4-dimethyl-N-((6-methyl-4-(methylthio)-2-oxo-1,2-dihydropyridin-3-yl)methyl)-1-(1-(1-(2,2,2-trifluoroethyl)piperidin-4-yl)ethyl)-1H-indole-3-carboxamide] | 0.0005 to 0.005 | < 0.01 | 
CSc1cc(C)[nH]c(=O)c1CNC(=O)c1c(C)n([C@H](C)C2CCN(CCC(F)(F)F)CC2)c2ccccc12 [Example 88, (R)-2-methyl-N-((6-methyl-4-(methylthio)-2-oxo-1,2-dihydropyridin-3-yl)methyl)-1-(1-(1-(3,3,3-trifluoropropyl)piperidin-4-yl)ethyl)-1H-indole-3-carboxamide] | < 0.0005 | 0.01 to 0.1 | 
